The subject of data set [1] is U937 xenograft. In words: U937 xenografts in nude mice, i.p. administration. The settings on record: 15 mg/kg daily i.p. Type of data set: in vivo, BALB/c-nu mice. The method, then:
D) Body weights of mice throughout treatment. Data are expressed as mean value±SD. *P<0.05 compared to control group.
Female nude mice (BALB/c-nu, n=7) were inoculated with 3×10^7 U937 cells subcutaneously in the right flank. After 7 days of implant of U937 cells, mice were treated daily with Vehicle (control), or Tamibarotene (15 mg/Kg, positive control), or Formula III (K145) (15 mg/Kg) by i.p. administration. Tumor size was measured every other day.

The target in data set [2] is SphK1 (Homo sapiens, UniProt Q9NYA1). Briefly: SphK1 activity assay. The class given is biochemical. To be noted: relative activity vs no inhibitor; compounds at 10 μM (FIGS. 1, 4, 6). On the procedure:
A) SphK1 and SphK2 activities were measured with 5 μM sphingosine in the absence or presence of the indicated concentrations of K145 or 10 μM DMS. Data are expressed as percentage SphK activity in the absence of inhibitor; B) Effect of K145 (10 μM) on activity of the indicated enzymes was tested by SelectScreen Kinase Profiling from Invitrogen. CaMK11β, Ca2+/calmodulin-dependent protein kinase II; CDK2, cyclin-dependent kinase 2; EGFR, Epidermal Growth Factor Receptor; Fyn, Fyn Kinase (p55); ERK2, extracellular signal-regulated kinase 2; ERK1, extracellular signal-regulated kinase 1; PKA, protein kinase A; PKCα, protein kinase C α; P13K, phosphatidylinositide 3-kinase. Data are expressed as percentage of control activity averaged from 2 independent experiments.
FIG. 3. SphK2 was incubated with indicated compounds at 10 μM, then the activity of SphK2 was determined. The data shown here is a relative activity of SphK2 compared to control (no inhibitor, column labeled Sph in the Figure). 96047 is a known SpK2 inhibitor. A5, B26, K25 and QLA13 are known compounds [Li et al. (2009) Bioorg Med Chem Lett 19: 6042-6046; Liu et al. (2012) Eur J Med Chem 47: 125-137] and were tested for purposes of comparison. “A” and “B” refer to different batches of a compound. FIG. 4. SphK1 was incubated with indicated compounds at 10 μM, then the activity of SphK1 was determined. The data shown here is a relative activity of SphK1 compared to control (no inhibitor, column labeled Sph in the Figure). 96091 is a known Spk1 inhibitor. A5, B26, K25 and QLA13 are as above for […]. “A” and “B” refer to different batches of a compound.
FIG. 6. SphK1 was incubated with indicated compounds at 10 μM, then the activity of SphK2 was determined. The data shown here is a relative activity of SphK2 compared to control (no inhibitor).

The subject of data set [3] is JC xenograft. Briefly: JC xenografts in syngenic BALB/c mice, i.p. Type of data set: in vivo. On the procedure: FIG. 14A-E. K145 suppresses the growth of JC xenograft in BALB/c mice. BALB/c mice (n=8) with palpable JC xenograft were treated daily with vehicle or K145 (20 mg/kg and 35 mg/kg) for 15 days by i.p. injection.
Female BALB/c mice (n=12) were injected with 1×10^6 JC cells subcutaneously in the flank, and treatment with the compound produced as described in Example 15 i.e. 3-(2-aminoethyl)-5-[3-(4-butoxyphenyl)-propylidene]-thiazolidine-2,4-dione (Formula III-K145, 20 mg/kg and 35 mg/Kg dosage daily (i.p.) was started seven days after the tumor cell injection and stopped at day […]. Mice were sacrificed at 15 days treatment.

The target of data set [4] is T1, SphK2 (Homo sapiens, UniProt Q9NRA0).
T1 sequence (Q9NRA0 1-654): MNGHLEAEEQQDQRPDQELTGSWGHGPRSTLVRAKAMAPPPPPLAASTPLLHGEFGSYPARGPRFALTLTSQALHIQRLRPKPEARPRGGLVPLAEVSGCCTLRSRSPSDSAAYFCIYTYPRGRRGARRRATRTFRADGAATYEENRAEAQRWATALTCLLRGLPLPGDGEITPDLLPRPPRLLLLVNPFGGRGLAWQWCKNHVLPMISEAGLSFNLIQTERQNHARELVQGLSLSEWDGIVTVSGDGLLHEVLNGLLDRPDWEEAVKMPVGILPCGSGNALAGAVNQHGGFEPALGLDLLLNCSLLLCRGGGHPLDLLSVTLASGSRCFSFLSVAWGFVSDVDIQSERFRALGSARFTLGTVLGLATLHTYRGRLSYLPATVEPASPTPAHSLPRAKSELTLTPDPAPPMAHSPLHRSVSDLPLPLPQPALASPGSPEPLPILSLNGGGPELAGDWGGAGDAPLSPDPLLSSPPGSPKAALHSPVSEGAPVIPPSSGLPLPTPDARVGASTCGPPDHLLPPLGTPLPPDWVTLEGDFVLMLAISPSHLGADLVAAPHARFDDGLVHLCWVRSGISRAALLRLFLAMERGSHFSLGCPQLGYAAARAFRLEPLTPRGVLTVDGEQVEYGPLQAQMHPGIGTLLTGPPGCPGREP
Briefly: Phosphorylation of FTY720 (SphK2 specific substrate) in U937 cells. The settings on record: FTY720 1 μM, 3 h. Details: U937 cells were treated with FTY720 (1 μM) in the absence or presence of indicated K145 for 3 h; endogenous in cells; host or cells: U937. Type of data set: cell-based.

Chain of SphK1 (Q9NYA1 whole entry, species assumed): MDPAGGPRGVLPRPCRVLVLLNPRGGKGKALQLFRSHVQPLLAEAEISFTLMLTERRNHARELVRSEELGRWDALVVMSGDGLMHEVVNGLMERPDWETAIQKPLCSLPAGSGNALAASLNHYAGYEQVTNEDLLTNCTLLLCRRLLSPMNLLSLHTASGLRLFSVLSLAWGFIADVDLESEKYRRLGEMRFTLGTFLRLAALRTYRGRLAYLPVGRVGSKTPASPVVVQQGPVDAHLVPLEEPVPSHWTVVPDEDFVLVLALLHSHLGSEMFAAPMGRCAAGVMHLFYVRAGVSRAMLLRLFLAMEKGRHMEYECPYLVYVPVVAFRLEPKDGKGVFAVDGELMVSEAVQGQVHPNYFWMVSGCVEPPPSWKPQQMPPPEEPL

`CCCCOc1ccc(CC/C=C2\SC(=O)N(CCN)C2=O)cc1` [K145, 3-(2-aminoethyl)-5-[3-(4-butoxyl-phenyl)-propylidene]-thiazolidine-2,4-dione]: the “TGI (tumor growth inhibition)” value in data set [1] (17 days) is recorded as 44.2%. In data set [1] (compared with vehicle), the “body weights of mice” value is given as “remained the same”. For the same compound, the “inhibition of SphK1 activity (in words)” value in data set [2] is on record as “not SphK1”. The “S1P level in JC tumor samples” value in data set [3] (20 mg/kg group vs vehicle, ESI-MS/MS) is listed as “suppressed”. Besides, the “K145 level in JC tumor samples” value in data set [3] (20 mg/kg group, ESI-MS/MS) is given as “detected”. For the same compound, the “p-ERK and p-Akt levels in tumor samples” value in data set [3] (20 mg/kg vs vehicle, Western blot) is “decreased”. Also, in data set [3] (20 and 35 mg/kg i.p., 15 days), the “changes in body weights and major organs (heart, lung, liver, kidney)” value was “did not observe significant changes”; the “tumor weights vs vehicle-treated mice” value is recorded as “significantly less”. The “mean volume of JC tumors smaller than in vehicle-treated mice” value in data set [3] (both doses (20 and 35 mg/kg daily i.p.), after 15 days) is > 50%. In addition, the “phosphorylation of FTY720” value in data set [4] is “inhibited”.

These data come from patent US9598384B2, “3-(2-amino-ethyl)-alkylidene)-thiazolidine-2,4-dione and 1-(2-amino-ethyl)-alkylidene-1,3-dihydro-indol-2-one derivatives as selective sphingosine kinase 2 inhibitors” (VIRGINIA COMMONWEALTH UNIVERSITY, priority 2012, dated 2017).
